Blank lines part the entries; values can stand above or below the molecule they belong to.
Key:
[1] = Solubility determination by titrating deionised water, assessed visually; type: physicochemical; conditions: visual, lower limit = soluble, upper limit = undissolved material present
Experimental: Solubility was assessed using known quantities (approx 1 mg) and titrating small volumes (2-40 microlitres) of deionised water and assessed visually. The data given are ranges. The lower limit represents soluble and upper limit the presence of undissolved material.

[2] = literature value, Ip et al. 1992; cited from earlier work
[3] = cited from earlier work
[4] = Thermal Mechanical Analysis (TMA) glass transition point; type: physicochemical; conditions: compressed pellet, heating rate 10° C./min, 30-160° C.
Experimental: The method involves compressing 140 mg of material in a punch and die (3 mm) to 2 KN. The compressed pellet was then placed on the TMA and the 1.1 mm probe placed on the top face. A heating rate of 10° C./min was used and the sample was heated from 30-160° C.

[5] = Differential Scanning Calorimetry (DSC) glass transition; type: physicochemical; conditions: dry amorphous lisinopril, anomalous endotherm
Experimental: Differential Scanning Calorimetry (DSC) was performed on approximately 0.5-3 mg sample, using a Mettler DSC820 instrument, according to standard methods, for example those described in Hohne et al. (1996) Differential scanning Calorimetry, Springer, Berlin.

solubility [1]: 60 to 65 mg/mL
Compound: NCCCC[C@H](NC(CCc1ccccc1)C(=O)O)C(=O)N1CCC[C@H]1C(=O)O (stereo partly drawn) [Dihydrate, (S)-1-[N^2-(1-carboxy-3-phenylpropyl]-L-lysyl]-L-proline]
Reference solubility (mg/ml) [2]: 97^1 mg/ml

Compound: NCCCC[C@H](NC(CCc1ccccc1)C(=O)O)C(=O)N1CCC[C@H]1C(=O)O (stereo partly drawn) [lisinopril, (S)-1-[N^2-(1-carboxy-3-phenylpropyl]-L-lysyl]-L-proline]
effective half-life of accumulation ([3]; multiple dosing): about 12.6 hours
time to peak serum concentrations ([3]; oral administration): ≤ 7 h

solubility ([1]; listed as Amorphous): 900 to 1250 mg/mL
glass transition temperature by TMA [4]: 129 °C
glass transition temperature (Tg) by DSC [5]: 125 °C
Compound: NCCCC[C@H](NC(CCc1ccccc1)C(=O)O)C(=O)N1CCC[C@H]1C(=O)O (stereo partly drawn) [amorphous lisinopril, (S)-1-[N^2-(1-carboxy-3-phenylpropyl]-L-lysyl]-L-proline]
